Consider three compounds from patent US20070093469A1, “Substituted azetidine compounds as cyclooxygenase-1-cyclooxygenase-2 inhibitors, and their preparation and use as medicaments” (LABORATORIOS DEL DR. ESTEVE S.A, priority 2004, published 2007).

One assay concerns the target T1, Cox-1 (Homo sapiens, UniProt P23219).
T1 construct: from tissue; host or cells: fresh human whole blood
The assay can be described thus: Cox-1 activity in human whole blood (TXB2). As to conditions: read-out: hWB inhibition COX-1 IC50. The class given is cell-based. The method, then: (§1) II. Determination of Cox-1- and Cox-2-Activity in Human Whole Blood
(§2) The Cox-1- and Cox-2-activity in human whole blood is determined according to a modification of the method described in the publication of C. Brideau et al., “A human whole blood assay for clinical evaluation of biochemical efficacy of cyclooxygenase inhibitors”, Inflamm Res 1996; 45: 68-74. The respective part of the description is hereby incorporated by reference and forms part of the present disclosure.
For Cox-1 activity determination, fresh human blood is distributed in a volume of 0.5 ml to silicone Eppendorf tubes, into which 2 μl of the compound to be tested or dimethylsulfoxide (DMSO) at a final concentration of 0.4% (volume/volume). The tubes are inverted for homogenization and incubated for 1 hour at 37° C. under slight stirring. Afterwards they are centrifuged for 15 min at 10500 g and 100 μl of serum is collected. Proteins are precipitated by the addition of 400 μl of methanol to each tube, tubes were centrifuged for 10 minutes at 5000 g and 300 μl of supernatant is aspirated and then dried under nitrogen atmosphere.
Tromboxane B2 (TXB2) concentration is quantified using an assay kit (Caymann Chemical, Ann Arbor, Mich., U.S.A., Catalogue number 519031) after reconstitution into 300 μl assay buffer supplied in the assay kit.

The target in another assay is T2, Cox-2 (Homo sapiens, UniProt P35354).
T2 construct: 0.5 ml of fresh human blood; from tissue; host or cells: fresh human whole blood stimulated with E. coli 0111:B4 LPS
T2 sequence (P35354 18-604): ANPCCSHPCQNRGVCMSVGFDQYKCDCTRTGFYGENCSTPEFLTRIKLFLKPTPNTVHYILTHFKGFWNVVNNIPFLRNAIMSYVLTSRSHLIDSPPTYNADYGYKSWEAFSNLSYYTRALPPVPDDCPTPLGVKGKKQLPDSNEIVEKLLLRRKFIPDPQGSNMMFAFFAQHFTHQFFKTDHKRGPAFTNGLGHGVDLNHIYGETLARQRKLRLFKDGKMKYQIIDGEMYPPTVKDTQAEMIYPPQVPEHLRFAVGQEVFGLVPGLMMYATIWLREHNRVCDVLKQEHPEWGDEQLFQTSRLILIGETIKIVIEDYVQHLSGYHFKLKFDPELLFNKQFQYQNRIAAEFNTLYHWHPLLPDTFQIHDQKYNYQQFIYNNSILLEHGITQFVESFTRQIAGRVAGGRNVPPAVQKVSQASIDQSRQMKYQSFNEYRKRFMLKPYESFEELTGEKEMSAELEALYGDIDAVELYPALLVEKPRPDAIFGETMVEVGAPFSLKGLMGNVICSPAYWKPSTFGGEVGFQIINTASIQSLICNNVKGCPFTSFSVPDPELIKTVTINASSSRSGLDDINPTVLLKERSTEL
The experiment in a line: Cox-2 activity in human whole blood (LPS, PGE2). The class given is cell-based. Conditions: read-out: hWB inhibition COX-2 IC50. The method, then:
as §1, §2
For Cox-2 activity determination, tubes are prepared with 2 μl of the compound to be tested or DMSO, 12 μg/ml of aspirine, 9 μl of 1% (weight/volume) sodium heparine and 0.5 ml of fresh human blood. Samples are pre-incubated at 37° C. during 15 minutes and E. coli 0111:B4 LPS (from Sigma Chemical, St. Louis, Mo. U.S.A., catalogue number L-3012) are added for incubation during 24 h at 37° C. The samples are centrifuged for 100 μl of plasma collection. 400 μl of Ethyl acetate and 1% (volume/volume) methanol are added to each sample and the tubes are stirred and centrifuged for 10 minutes at 5000 g at 4° C. 300μl of supernatant are aspirated and evaporated under nitrogen atmosphere. Prostaglandin E2 concentration is quantified using an assay kit from Cayman Chemical, Ann-Arbor, Mich., U.S.A. (Catalogue number: 514010 ) after reconstitution into 300 μl assay buffer supplied in the assay kit.

A further assay concerns rats. The experiment in a line: Analgesia test in rats (carrageenan, thermal stimulus). The class given is in vivo. As to conditions: Rattus norvegicus, oral route, 2 hours after administration, read-out: ED50 analgesic activity. The method, then:
III: Analgesia Test in Rats
The inventive compounds are tested for analgesic activity as described above is carried out as described in the publication of K. Hargreaves et al., Pain, 32, 77-88, (1988). The respective part of the description is hereby incorporated by reference and forms part of the disclosure.
The rats are transferred to the experimentation laboratory, where they remain in groups of 5, in makrolon cages with a barred floor to avoid coprophagy. At the beginning of the experiment, water and food were removed, and animals were adequately weighed and marked.
Each rat receives via subplantar injection 0.1 ml of sterile saline solution into the left hind paw, followed by 0.1 ml of a 2% (weight/volume) carrageenan suspension in sterile saline solution into the right hind paw.
Two hours after the subplantar injections of carrageenan and vehicle, each rat receives by oral route the compounds to be tested, suspended in 5% (weight/volume) gum arabic, administered at 10 ml per kg of body weight. Two hours after the administration of the compounds to be tested, the values for analgesic activity are determined. To this purpose, the rats are transferred to the methacrylate chambers of an analgesimeter provided with a glass floor. Once the acclimatisation period in the chambers is over (i.e. after 5 minutes) an infra-red beam lamp capable of producing a thermal stimulus, is placed below the rat's paws.
The thermal stimulus, previously calibrated at 10 Amperes, is applied to each of the hind paws with at least 1 minute intervals. The response of the rats to pain consists of raising the paw, thus avoiding contact with the floor. […] The rats are tested once only to avoid possible learning behaviour.

T1 sequence (P23219 24-599): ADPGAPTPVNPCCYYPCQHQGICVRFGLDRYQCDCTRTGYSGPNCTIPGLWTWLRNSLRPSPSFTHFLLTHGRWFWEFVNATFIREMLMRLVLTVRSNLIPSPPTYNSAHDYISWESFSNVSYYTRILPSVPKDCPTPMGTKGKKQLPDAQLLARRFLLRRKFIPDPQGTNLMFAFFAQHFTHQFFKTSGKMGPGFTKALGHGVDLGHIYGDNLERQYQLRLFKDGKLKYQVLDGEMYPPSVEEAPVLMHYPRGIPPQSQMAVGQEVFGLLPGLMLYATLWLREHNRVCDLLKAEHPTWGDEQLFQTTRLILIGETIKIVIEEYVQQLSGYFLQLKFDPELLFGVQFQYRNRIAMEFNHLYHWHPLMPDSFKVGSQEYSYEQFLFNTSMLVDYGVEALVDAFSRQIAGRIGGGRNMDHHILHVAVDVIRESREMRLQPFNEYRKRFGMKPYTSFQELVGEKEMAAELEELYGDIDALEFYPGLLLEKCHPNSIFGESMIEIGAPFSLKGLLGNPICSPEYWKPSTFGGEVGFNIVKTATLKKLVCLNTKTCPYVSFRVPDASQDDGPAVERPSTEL

`CC(C)(C)c1cc(C(=O)N2CC(O)C2)cc2c1OCC2(C)C` [Example 14, (7-tert-butyl-3,3-dimethyl-2,3-dihydro-benzofuran-5-yl)-(3-hydroxy-azetidin-1-yl)-methanone]: the concentration for half-maximal inhibition (IC50) stood at 50 nM at Cox-1 and 100 nM at Cox-2. In addition, the ED50 in the assay with rats turned out to be 3 mg/kg.

With `CC(C)(C)c1cc(C(=O)N2CC(O)C2)cc(C(C)(C)C)c1` [Example 2, (3,5-di-tert-butyl-phenyly)-(3-hydroxy-azetidin-1-yl)-methanone], the figures for the IC50 on Cox-1 and at Cox-2 were 500 nM and 800 nM, respectively. Besides, the median effective dose (ED50) in the assay with rats was 1.65 mg/kg.

With `CC1C(O)CN1C(=O)c1cc(C(C)(C)C)c(O)c(C(C)(C)C)c1` (stereo not drawn) [Example 4, (3,5-di-tert-butyl-4-hydroxy-phenyl)-(3-hydroxy-2-methyl-azetidin-1-yl)-methanone], the half-inhibitory concentration (IC50) at Cox-1 and on Cox-2 was 500 nM in each case. Besides, the median effective dose (ED50) in the assay with rats was 0.7 mg/kg.
